# Columns and labels:
# [1] = 25° C.; cited from earlier work
# [2] = Solubility study, Crystal16 apparatus, pH 6.8 buffer, nephelometric detection; type: physicochemical; conditions: pH 6.8 buffer solution, aqueous buffer, thermodynamic from solid, 25° C., reference under the study conditions, read-out: Solubility of agomelatine (reference)
# Procedure: Various concentrations were tested and the presence of insoluble particles was monitored by nephelometric detection.
# [3] = Glass transition temperature by scanning calorimetric analysis (DSC); type: physicochemical
# Procedure: The Applicant has now discovered that agomelatine has an amorphous state whose glass transition temperature has been measured at −6° C. by scanning calorimetric analysis, or DSC (“Differential Scanning calorimetry”). Above that temperature, the active ingredient undergoes a transition towards a crystalline form. Preserving agomelatine in the amorphous state at ambient temperature is therefore not possible.
compound,measurement,setting,value
"COc1ccc2cccc(CCNC(C)=O)c2c1 [agomelatine, N-[2-(7-methoxy-1-naphthyl)ethyl]acetamide]",Solubility of agomelatine in water,[1],less than 0.15 mg/ml
same,solubility at 4 h,[2],140 µg/mL
same,Glass transition temperature of the amorphous state,[3],−6 °C
